Assay results: patent US20080051438A1, “Preventive/Therapeutic Compositions Useful for Treating Cardiovascular Diseases” (priority 2006, published 2008)
Marks after values point to notes of the source that are not given here.

What was measured:
Assay type in all cases: in vivo, human
hypertensive patients [1] = test: Special investigation of combined use of cilnidipine and ARB: changes in systolic and diastolic blood pressure; conditions: only ARB, then cilnidipine singularly added; last measurement (222.03±143.88 days)
hypertensive patients [2] = test: Special investigation of combined use of cilnidipine and ARB: degree of the blood pressure controls judged by the doctor (efficacy ratio); set-up: concentration or dose not given beside the values
Procedure: (§1) A special investigation was conducted in various medical centers, compiled, and analyzed to evaluate the safety and availability of the combined use of cilnidipine and at least one angiotensin II receptor blocker.
(§2) The subjects of the investigation were hypertensive patients which were adapted to cilnidipine. Combined administration of cilnidipine and ARB was started for the treatment of hypertension in these patients.
(§3) A prospective continuous investigation method was conducted. Such a method is continuously conducted with the registered cases with the combined administration of cilnidipine (Atelec®) and ARB, until the number of cases reaches the contracted cases for each center.
(§4) Regarding the administration method of cilnidipine, 5 to 10 mg of cilnidipine was orally administered after breakfast once a day. Meanwhile, the amount may increase or decrease depending on patient's age, symptoms, or the like. When the effect is insufficient, the amount can be increased to 20 mg once a day. The dosing period of cilnidipine was set to 12 weeks in principle.
(§5) The following items were tracked during the investigation: patient's background (sex), existence or nonexistence of previous therapeutic agents and the content thereof, targeted blood pressure (systolic BP/diastolic BP), the conditions of administration of cilnidipine and ARB, antihypertensives used in combination (those other than cilnidipine or ARB), clinical course (systolic BP/diastolic BP/heart rate), and occurrence of side-effects. As for the availability of the combined administration, in the 12th week after starting the combined administration, the doctor in attendance judged the degree of the blood pressure controls on a three-point scale of “well-controlled”, “nearly well-controlled” and “poorly-controlled”, referring to the changes in the systolic and diastolic BP. As for the safety and availability analysis for each patient background, Fisher's exact probability test or the X^2 test was used. As for the blood pressure and heart rate, the average value and the standard deviation were calculated for the subjects before the combined administration (within 4 weeks before starting the combined administration), and data after starting the combined administration were determined on each observation day, and analysis was conducted by using a paired t-test. The test was conducted as the two-sided test and less than 5% of the risk rate was regarded as significant. Furthermore, side-effects were compiled based on the naming of preferred terms (PT) of MedDRA/J ver 8.0.
As the index of availability, in the 12th week after starting the combined administration, the doctor in attendance judged the degree of the blood pressure controls on a three-point scale of “well-controlled”, “nearly well-controlled” and “poorly-controlled”.
(1) Among the 2919 cases in the availability analysis, 42 cases in which the degree of the blood pressure controls was not described, and 168 cases which could not be judged, were excluded. In the other 2709 cases, the ratio of number of cases judged as “nearly well-controlled” or higher was calculated as the efficacy ratio. Accordingly, the efficacy ratio of the subject cases in the availability analysis was 84.8% (2298 cases/2709 cases).

hypertensive patients [3] = test: Special investigation of combined use of cilnidipine and ARB: changes in heart rate; conditions: for heart rate after starting the combined administration / heart rate after starting the combined use: 12 weeks and later up to last measurement; for heart rate, aft. / heart rate, bef.: all availability cases; for heart rate, bef. use / heart rate, aft. use: only ARB
Procedure: as §1, §2, §3, §4, §5
(§6) Table 7 and FIG. 2 show the number of cases for which the blood pressure was measured, and the changes in the measured values of systolic BP, diastolic BP, and heart rate were measured at the following time points: before starting the combined administration, 4 weeks, 8 weeks, and 12 weeks after starting the combined administration, and the last measurement, which was 222.43 days in average from the start of the combined administration, n=2919). […] Then, it continued to slowly decrease, and the a stable change was seen up to 12 weeks after the start.

hypertensive patients [4] = test: Special investigation of combined use of cilnidipine and ARB: changes in systolic and diastolic blood pressure; conditions: for diastolic BP, aft. / systolic BP, aft. / diastolic BP, bef. / systolic BP, bef.: all availability cases; for diastolic BP, bef. use / systolic BP, bef. use / diastolic BP, aft. use / systolic BP, aft. use: only ARB
Procedure: as §1, §2, §3, §4, §5
as §6, with “which was 222.43 days in average from the start of the combined” left out

[5] = all availability cases with heart rate 75 or higher and less than 85 beats/min. before combined use
[6] = all availability cases with heart rate 85 beats/min. or higher before combined use
[7] = cilnidipine + ARB, 4 wks after use
[8] = cilnidipine + ARB, 8 wks after use
[9] = cilnidipine + ARB, 12 wks after use
[10] = cilnidipine + ARB, last measurement (222.43 days in average)
[11] = only ARB then cilnidipine added, cases with heart rate 75 or higher and less than 85 beats/min. before combined use
[12] = only ARB then cilnidipine added, cases with heart rate 85 beats/min. or higher before combined use
[13] = then cilnidipine singularly added, 4 wks after the use
[14] = then cilnidipine singularly added, 8 wks after the use
[15] = then cilnidipine singularly added, 12 wks after the use
[16] = then cilnidipine singularly added, last measurement (222.03±143.88 days)
[17] = cilnidipine + ARB, before combined use, 2,586 cases
[18] = value before combined use of the 840 cases measured at 8 wks
[19] = value before combined use of the 950 cases measured at 12 wks
[20] = value before combined use of the 1,131 cases measured at 4 wks
[21] = value before combined use of the 2,565 cases with last measurement
[22] = then cilnidipine added, value before combined use of the 338 cases measured at 8 wks
[23] = then cilnidipine added, value before combined use of the 360 cases measured at 12 wks
[24] = then cilnidipine added, value before combined use of the 453 cases measured at 4 wks
[25] = then cilnidipine added, value before combined use of the 1,047 cases with last measurement
[26] = then cilnidipine singularly added, before combined use, 1,055 cases

## COCCOC(=O)C1=C(C)NC(C)=C(C(=O)OC/C=C/c2ccccc2)C1c1cccc([N+](=O)[O-])c1 (racemic) [cilnidipine, 2-methoxyethyl-3-phenyl-2(E)-propenyl(±)-1,4-dihydro-2,6-dimethyl-4-(3-nitrophenyl)-3,5-pyridinedicarboxylate]
Hypertensive patients [1]
  systolic BP, aft. use: 139.73 ± 15.77^b mmHg
Hypertensive patients [2]; all subject cases in the availability analysis, 12th week after starting cilnidipine + ARB, 2298 cases/2709 cases
  efficacy ratio (cases judged nearly well-controlled or higher): 84.8%
Hypertensive patients [2]; cases on ARB alone, cilnidipine additionally administered (antihypertensives ARB and cilnidipine only)
  efficacy ratio (cases judged nearly well-controlled or higher): 86.4%
Hypertensive patients [3]; [5]
  heart rate before starting the combined use: 79.19±2.73 beats/min.
  heart rate after starting the combined administration: 76.28±8.93 beats/min.
Hypertensive patients [3]; [6]
  heart rate before starting the combined use: 93.48±7.28 beats/min.
  heart rate after starting the combined administration: 84.57±11.17 beats/min.
Hypertensive patients [3]; [7]
  heart rate, aft.: 73.80 ± 10.80 beat/min.
Hypertensive patients [3]; [8]
  heart rate, aft.: 72.87 ± 10.53 beat/min.
Hypertensive patients [3]; [9]
  heart rate, aft.: 73.61 ± 10.57 beat/min.
Hypertensive patients [3]; cilnidipine + ARB, before combined use, 1,815 cases
  heart rate, bef.: 75.40 ± 11.47 beat/min.
Hypertensive patients [3]; [10]
  heart rate, aft.: 73.18 ± 10.37 beat/min.
Hypertensive patients [3]; value before combined use of the 557 cases measured at 8 wks
  heart rate, bef.: 73.83 ± 10.49 beat/min.
Hypertensive patients [3]; value before combined use of the 664 cases measured at 12 wks
  heart rate, bef.: 75.33 ± 10.98 beat/min.
Hypertensive patients [3]; value before combined use of the 765 cases measured at 4 wks
  heart rate, bef.: 75.06 ± 11.46 beat/min.
Hypertensive patients [3]; value before combined use of the 1,615 cases with last measurement
  heart rate, bef.: 75.18 ± 11.30 beat/min.
Hypertensive patients [3]; [11]
  heart rate before starting the combined use: 79.24±2.71 beats/min.
  heart rate after starting the combined use: 76.87±8.37 beats/min.
Hypertensive patients [3]; [12]
  heart rate before starting the combined use: 93.64±6.90 beats/min.
  heart rate after starting the combined use: 84.30±10.58 beats/min.
Hypertensive patients [3]; then cilnidipine added, value before combined use of the 229 cases measured at 8 wks
  heart rate, bef. use: 72.97 ± 10.16 beat/min.
Hypertensive patients [3]; then cilnidipine added, value before combined use of the 249 cases measured at 12 wks
  heart rate, bef. use: 73.98 ± 10.44 beat/min.
Hypertensive patients [3]; then cilnidipine added, value before combined use of the 308 cases measured at 4 wks
  heart rate, bef. use: 73.40 ± 10.54 beat/min.
Hypertensive patients [3]; then cilnidipine added, value before combined use of the 648 cases with last measurement
  heart rate, bef. use: 74.26 ± 10.58 beat/min.
Hypertensive patients [3]; [13]
  heart rate, aft. use: 72.49 ± 10.25^a beat/min.
Hypertensive patients [3]; [14]
  heart rate, aft. use: 72.62 ± 10.60 beat/min.
Hypertensive patients [3]; [15]
  heart rate, aft. use: 72.54 ± 10.28^a beat/min.
Hypertensive patients [3]; then cilnidipine singularly added, before combined use, 738 cases
  heart rate, bef. use: 74.46 ± 10.76 beat/min.
Hypertensive patients [3]; [16]
  heart rate, aft. use: 73.24 ± 10.51^a beat/min.
Hypertensive patients [4]; [7]
  diastolic BP, aft.: 80.44 ± 11.30 mmHg
  systolic BP, aft.: 144.31 ± 16.64 mmHg
Hypertensive patients [4]; [8]
  diastolic BP, aft.: 78.69 ± 10.99 mmHg
  systolic BP, aft.: 142.28 ± 17.41 mmHg
Hypertensive patients [4]; [9]
  diastolic BP, aft.: 78.64 ± 11.39 mmHg
  systolic BP, aft.: 140.57 ± 16.45 mmHg
Hypertensive patients [4]; [17]
  diastolic BP, bef.: 89.49 ± 13.09 mmHg
  systolic BP, bef.: 162.21 ± 19.21 mmHg
Hypertensive patients [4]; [10]
  diastolic BP, aft.: 78.78 ± 10.68 mmHg
  systolic BP, aft.: 139.67 ± 16.47 mmHg
Hypertensive patients [4]; [18]
  diastolic BP, bef.: 88.22 ± 13.53 mmHg
  systolic BP, bef.: 161.13 ± 18.47 mmHg
Hypertensive patients [4]; [19]
  diastolic BP, bef.: 88.56 ± 13.48 mmHg
  systolic BP, bef.: 161.63 ± 18.58 mmHg
Hypertensive patients [4]; [20]
  diastolic BP, bef.: 88.80 ± 12.94 mmHg
  systolic BP, bef.: 161.96 ± 19.46 mmHg
Hypertensive patients [4]; [21]
  diastolic BP, bef.: 89.51 ± 13.09 mmHg
  systolic BP, bef.: 162.19 ± 19.11 mmHg
Hypertensive patients [4]; [22]
  diastolic BP, bef. use: 90.63 ± 13.13 mmHg
  systolic BP, bef. use: 162.45 ± 16.04 mmHg
Hypertensive patients [4]; [23]
  diastolic BP, bef. use: 90.26 ± 12.40 mmHg
  systolic BP, bef. use: 161.92 ± 15.66 mmHg
Hypertensive patients [4]; [24]
  diastolic BP, bef. use: 90.72 ± 12.00 mmHg
  systolic BP, bef. use: 163.61 ± 15.91 mmHg
Hypertensive patients [4]; [25]
  diastolic BP, bef. use: 91.31 ± 11.47 mmHg
  systolic BP, bef. use: 163.11 ± 16.40 mmHg
Hypertensive patients [4]; [13]
  diastolic BP, aft. use: 81.47 ± 10.51^b mmHg
  systolic BP, aft. use: 143.91 ± 15.39^b mmHg
Hypertensive patients [4]; [14]
  diastolic BP, aft. use: 79.75 ± 10.37^b mmHg
  systolic BP, aft. use: 140.97 ± 15.94^b mmHg
Hypertensive patients [4]; [15]
  diastolic BP, aft. use: 79.71 ± 11.23^b mmHg
  systolic BP, aft. use: 140.09 ± 15.37^b mmHg
Hypertensive patients [4]; [26]
  diastolic BP, bef. use: 91.26 ± 11.48 mmHg
  systolic BP, bef. use: 163.09 ± 16.36 mmHg
Hypertensive patients [4]; [16]
  diastolic BP, aft. use: 79.68 ± 10.68^b mmHg
